Results taken from patent US20250176553A1, “SOLUTION FOR […] AND METHOD OF PRODUCING THEREOF” (OCT, Inc., priority 2022, published 2025).
Several values for one entry are separate records, joined by “and”; a condition that tells them apart may be missing. Equal values may be shown once. Read-outs that look alike come from different tables or passages of the source.

What was measured:
hibiscus leaf = details: adjusted to pH 0.5; leaf surface wetted, observed after 20 hours
Method: A hibiscus leaf was divided into left and right halves by the central vein. […] The surfaces of the half leaves were observed after 20 hours.

[1] = test system: Streptococcus mutans biofilms; details: for Absorbance, Average value: average of samples 1-6; for Absorbance: individual samples 1-6, medium replaced after biofilm formation, further 24 hours
From the text: (§1) FIGS. 3 to 6 show the experimental results in which Streptococcus mutans strains are actually used. Streptococcus mutans is a facultative anaerobe and a gram-positive streptococcus. It produces insoluble, sticky glucans that stick to tooth surfaces. It is one of the bacteria that mainly cause dental caries. THB (TODD-HEWITT BROTH) supplemented with 2% (w/v) sucrose was used as the medium. Sucrose is a sugar composed of the monosaccharides glucose and fructose with an α-1,2-glycosidic linkage and one of the disaccharides. THB manufactured by Becton, Dickinson and Company was used. For sucrose, “CASRN” manufactured by FUJIFILM Wako Pure Chemical Corporation was used. The plate used for culture was a Thermo Scientific Nunclon Delta Surface 96 well. The incubator used was a Panasonic multi-gas incubator MCO-5MUV-PJ. Culturing was conducted at 37° C. under an atmosphere of 5% CO2 gas, 5% O2 gas and 90% N2 gas.
(§2) Devices and the like used to measure residual biofilms are described below. For staining, 0.1% Crystal Violet from FUJIFILM Wako Pure Chemical Corporation was used. It was dissolved in distilled water to 0.1% (w/v).
(§3) Life Technologies EVOS XL Core was used as the microscope for photography. […] Co., Ltd. was used as the absorption spectrometer. The data processing software was “SF6” and the absorbance wavelength was 590 nm.
(§4) Streptococcus mutans was diluted in 2% sucrose-containing THB and 10 inoculated samples of 100 μL each were plated onto cell culture plates (Thermo Scientific Nunclon Delta Surface 96well). The samples were then cultured in a multi-gas incubator for 24 hours to allow biofilms to form on the bottom of each plate.
The media were removed and the plates were washed with distilled water 24 hours after the start of cultivation. […] The samples were further cultured in a multi-gas incubator for 24 hours. After culturing, the plates were washed with distilled water and stained with 0.1% Crystal Violet solution for 10 minutes. After staining, the plates were washed again with distilled water, dried and then observed and photographed using a bright field inverted microscope.

Fn bacteria biofilms = details: for Absorbance, Average value: average of samples 1-5
Method: THB (TODD-HEWITT BROTH) supplemented with 2% (w/v) sucrose was used as the medium. Sucrose is a sugar composed of the monosaccharides glucose and fructose with an α-1,2-glycosidic linkage and one of the disaccharides. THB manufactured by Becton, Dickinson and Company was used. For sucrose, “CASRN” manufactured by FUJIFILM Wako Pure Chemical Corporation was used. The plate used for culture was a Thermo Scientific Nunclon Delta Surface 96 well. The incubator used was a Panasonic multi-gas incubator MCO-5MUV-PJ. Culturing was conducted at 37° C. under an atmosphere of 5% CO2 gas, 5% O2 gas and 90% N2 gas.
Fn bacteria were diluted in 2% sucrose-containing THB and 10 inoculated samples of […] each were plated onto cell culture plates (Thermo Scientific Nunclon Delta Surface 96well). […] No test solution was added to one of the […] inoculated samples.
The samples were then cultured in a multi-gas incubator for 24 hours to allow biofilms to form on the bottom of each plate. After culturing, the plates were washed with distilled water and stained with 0.1% Crystal Violet solution for 10 minutes. After staining, the plates were washed with distilled water again and dried.
(§5) Crystal Violet was then extracted with 100 μL of 99.5% ethanol (FUJIFILM Wako Pure Chemical Corporation), and the absorbance was measured at a wavelength of 590 nm using an absorption spectrometer grating microplate reader.

[2] = test system: Streptococcus mutans biofilms; details: for Absorbance, Average value: average of samples 1-6; for Absorbance, Average value / Absorbance: 590 nm; for Absorbance: individual samples 1-6, 24 hours culture
From the text: as §1, §2, §3
Streptococcus mutans was diluted in 2% sucrose-containing THB and 10 inoculated samples of 100 μL each were plated onto cell culture plates (Thermo Scientific Nunclon Delta Surface 96well). […] No test solution was added to one of the 10 inoculated samples.
The samples were then cultured in a multi-gas incubator for 24 hours to allow biofilms to form on the bottom of each plate. After culturing, the plates were washed with distilled water and stained with 0.1% Crystal Violet solution for 10 minutes. After staining, the plates were washed again with distilled water, dried and then observed and photographed with a bright field inverted microscope.
as §5

[3] = test system: Streptococcus mutans biofilms; details: for Absorbance, Average value: average of samples 1-6, 590 nm; for Absorbance trend: FIG. 5
From the text: as §1, §2, §3, §4
The samples were further cultured in a multi-gas incubator for 24 hours. After culturing, the plates were washed with distilled water and stained with 0.1% Crystal Violet solution for 10 minutes. After staining, the plates were washed again with distilled water, dried and then observed and photographed using a bright field inverted microscope.
as §5

[4] = for Viscosity: 4 cc added to 150 g test sample, 25° C.
Method: The starch syrup used was manufactured by KATO SANGYO CO., LTD. (product name “Kanpy starch syrup”) and the vegetable jelly used was from COOP (manufacturer: Ina Food Industry Co., Ltd.) (product name “Coop Agar”).
Solutions for destroying biofilms adjusted to various pH values and a test solution were added to test mixtures of starch syrup and Coop Agar and the viscosity of each mixture was measured. Viscosity was measured using a “Viscotester (high viscosity type) VT-06” manufactured by RION Co., Ltd.
First, starch syrup and Coop Agar were mixed in a beaker at a ratio of 34 to 5 and the viscosity was measured with a Viscotester (high viscosity type) VT-06. […] The mixture of starch syrup and Coop Agar to be used for the test (test sample) was prepared weighing 150 grams. […] To 150 g of the test sample, 4 cc of the test solution was added and the measurement was performed with a Viscotester (high viscosity type) VT-06. The room temperature was 25° C. and humidity was 63% when the test was conducted.

In the case of `O=S(=O)(O)O` [sulfuric acid (H2SO4), reference compound], the “Leaf surface damage (white spotted areas, dead leaf cells)” value (hibiscus leaf) is reported as “areas where leaf cells are dead”.
In the case of `[2H]OS(=O)(=O)O[2H]` [deuterated sulfuric acid (D2SO4)], the “Leaf surface damage (white spotted areas, dead leaf cells)” value (hibiscus leaf) is reported as “the white spotted areas surrounded by dotted lines are significantly smaller”, the “Colour of stained plate (photograph, remaining biofilm)” value ([1]; lower pH values, FIG. 3 lower panel) is reported as “more biofilms were destroyed” and the “Absorbance, Average value” ([1]; pH 0.5) is reported as 0.590. The Absorbance ([1]; pH 0.5) was 0.438 and 0.570, the “Absorbance, Average value” ([1]; pH 0.8) was 0.729 and the Absorbance ([1]; pH 0.8) was 0.649 and 0.678. For the same compound, the Absorbance ([1]; pH 1.2) was 0.948 and 0.729 and 0.723, the “Absorbance, Average value” ([1]; pH 2.0) was 0.989 and the Absorbance ([1]; pH 2.0) was 0.951 and 0.966 and 0.921. The “Absorbance, Average value” ([1]; pH 2.3) was 1.083, the Absorbance ([1]; pH 2.3) was 1.091 and 1.052 and 1.038 and the “Absorbance, Average value” ([1]; pH 2.7) was 1.098. The Absorbance ([1]; pH 2.7) was 1.167 and 1.149 and 1.070, the “Absorbance, Average value” ([1]; pH 3.0) was 1.038 and the Absorbance ([1]; pH 3.0) was 1.036 and 1.113. For the same compound, the “Absorbance, Average value” ([1]; pH 3.3) was 1.113, the Absorbance ([1]; pH 3.3) was 1.044 and 1.117 and 1.054 and the “Absorbance, Average value” ([1]; pH 3.7) was 1.107. For the same compound, the Absorbance ([1]; pH 3.7) was 1.157 and 1.116 and 1.040, the “Biofilm destruction from absorbance trend” value ([1]; pH below 2.0, FIG. 6) was “biofilms are destroyed” and the “Absorbance, Average value” (Fn bacteria biofilms; pH 0.5, 590 nm) was 0.123. The Absorbance (Fn bacteria biofilms; pH 0.5, individual samples 1-5, 590 nm, 24 hours culture) was 0.123 (2×) and 0.124 (2×) and 0.122, the “Absorbance, Average value” (Fn bacteria biofilms; pH 2.0, 590 nm) was 0.320 and the “Absorbance, Average value” (Fn bacteria biofilms; pH 3.0, 590 nm) was 0.386. The “Absorbance, Average value” (Fn bacteria biofilms; pH 4.0, 590 nm) was 0.425, the “Absorbance, Average value” (Fn bacteria biofilms; pH 5.0, 590 nm) was 0.441 and the “Absorbance, Average value” (Fn bacteria biofilms; pH 6.0, 590 nm) was 0.465. The “Biofilm formation from absorbance trend” value (Fn bacteria biofilms; pH value below 4.5, compared to pH 6.0, FIG. 7) was “biofilm formation was made more difficult”, the “Colour of stained plate (photograph, remaining biofilm)” value ([2]; pH 0.8, 1.2 and 1.5, FIG. 3 upper panel) was “biofilm formation is significantly inhibited and destroyed” and the “Absorbance, Average value” ([2]; pH 0.8) was 0.089. The Absorbance ([2]; pH 0.8) was 0.089 (3×) and 0.090 (2×) and 0.088, the “Absorbance, Average value” ([2]; pH 1.2) was 0.096 and the “Absorbance, Average value” ([2]; pH 1.5) was 0.100. For the same compound, the Absorbance ([2]; pH 2.3) was 0.734, the Absorbance ([2]; pH 3.3) was 0.876 and the Absorbance ([2]; pH 3.7) was 0.874. For the same compound, the Absorbance ([2]; pH 4.0) was 0.733, the “Biofilm formation from absorbance trend” value ([2]; pH value below 2.3, FIG. 4) was “almost no biofilm was formed” and the “Colour of stained plate (photograph, remaining biofilm)” value ([3]; lower pH values, FIG. 3 middle panel) was “more biofilms were destroyed”. The “Absorbance, Average value” ([3]; pH 0.8) was 0.678, the “Absorbance, Average value” ([3]; pH 1.2) was 1.164 and the “Absorbance, Average value” ([3]; pH 1.5) was 1.250. The “Absorbance, Average value” ([3]; pH 2.3) was 1.288, the “Absorbance, Average value” ([3]; pH 2.7) was 1.375 and the “Absorbance, Average value” ([3]; pH 3.0) was 1.457. The “Absorbance, Average value” ([3]; pH 3.3) was 1.226, the “Absorbance, Average value” ([3]; pH 3.7) was 1.354 and the “Absorbance, Average value” ([3]; pH 4.0) was 1.346. The Absorbance trend ([3]; pH value below 1.5) was “absorbance decreased rapidly”, the Absorbance trend ([3]; pH value below 3.0) was “absorbance decreased gradually” and the “Viscosity reduction compared to pH 7.0” value ([4]; pH 0.5) was “⅓”. For the same compound, the Viscosity ([4]; test solution pH 0.5) was 130 dPa · s, the Viscosity ([4]; test solution pH 2.0) was 150 dPa · s and the Viscosity ([4]; test solution pH 3.0) was 180 dPa · s. For the same compound, the Viscosity ([4]; test solution pH 4.0) was 210 dPa · s, the Viscosity ([4]; test solution pH 5.0) was 240 dPa · s and the Viscosity ([4]; test solution pH 6.0) was 310 dPa · s.
